Paper PMC12409580, “Modulating Receptor Activity, Immune Response, and Kinetic Solubility: The Impact of Linker Chemistry in Conjugated NOD2/TLR4 Agonists” (ACS Omega, 2025)
≈ marks a conversion by molar mass, not a printed value.

Columns and labels:
[1] = Kinetic solubility in PBS (HPLC solubility assay); settings: aqueous buffer, kinetic from dmso stock
TLR4 = TLR4 (Homo sapiens, UniProt O00206+Q9Y6Y9); test: TLR4 NF-κB SEAP reporter assay in HEK-Blue hTLR4 cells; settings: for TLR4 activation at 10 μM, fold increase / TLR4 activation at 100 μM, fold increase: 18 h, NF-κB transcriptional activity (SEAP) relative to 0.1% DMSO; for maximum TLR4 activation: HEK-Blue hTLR4, 21 at 10 μM; for concentration at which compound activated TLR4: dose-response 0.5–10 μM (17–21) or 1–100 μM (27–31)
Sequence of TLR4 (O00206 24-839): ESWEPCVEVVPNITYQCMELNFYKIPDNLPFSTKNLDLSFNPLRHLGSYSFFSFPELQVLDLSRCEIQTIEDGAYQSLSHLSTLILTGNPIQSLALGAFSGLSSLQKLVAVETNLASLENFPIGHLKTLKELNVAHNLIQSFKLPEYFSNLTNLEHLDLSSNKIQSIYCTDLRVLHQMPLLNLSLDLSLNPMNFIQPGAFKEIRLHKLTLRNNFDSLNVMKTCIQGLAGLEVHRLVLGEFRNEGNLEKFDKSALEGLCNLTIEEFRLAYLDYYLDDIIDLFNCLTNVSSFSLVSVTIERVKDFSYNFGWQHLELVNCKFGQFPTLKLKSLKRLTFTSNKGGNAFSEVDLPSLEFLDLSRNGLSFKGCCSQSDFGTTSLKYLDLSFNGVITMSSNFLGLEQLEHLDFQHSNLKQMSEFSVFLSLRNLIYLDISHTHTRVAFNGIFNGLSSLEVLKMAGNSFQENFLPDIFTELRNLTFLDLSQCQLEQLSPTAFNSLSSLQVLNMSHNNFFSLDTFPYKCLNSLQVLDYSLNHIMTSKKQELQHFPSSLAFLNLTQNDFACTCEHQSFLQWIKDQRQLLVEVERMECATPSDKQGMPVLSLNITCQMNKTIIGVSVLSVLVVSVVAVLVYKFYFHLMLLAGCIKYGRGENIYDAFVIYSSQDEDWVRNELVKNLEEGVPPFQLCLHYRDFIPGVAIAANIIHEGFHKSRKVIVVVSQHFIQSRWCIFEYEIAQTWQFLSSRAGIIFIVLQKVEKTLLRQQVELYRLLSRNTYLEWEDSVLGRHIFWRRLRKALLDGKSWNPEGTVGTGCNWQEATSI
Sequence of TLR4 (Q9Y6Y9 17-160 limits assumed): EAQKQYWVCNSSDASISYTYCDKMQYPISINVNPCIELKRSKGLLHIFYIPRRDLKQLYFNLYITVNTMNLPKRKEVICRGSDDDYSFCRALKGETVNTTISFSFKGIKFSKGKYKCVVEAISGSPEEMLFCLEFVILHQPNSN

NOD2 = NOD2 (Homo sapiens, UniProt Q9HC29); test: NOD2 NF-κB SEAP reporter assay in HEK-Blue hNOD2 cells; settings: for NOD2 activation at 10 μM, fold increase: 18 h, NF-κB transcriptional activity (SEAP) relative to 0.1% DMSO; for NOD2 agonist activity: compared with NOD2 agonist 3 and MDP (4 μM)
Sequence of NOD2 (Q9HC29 whole entry): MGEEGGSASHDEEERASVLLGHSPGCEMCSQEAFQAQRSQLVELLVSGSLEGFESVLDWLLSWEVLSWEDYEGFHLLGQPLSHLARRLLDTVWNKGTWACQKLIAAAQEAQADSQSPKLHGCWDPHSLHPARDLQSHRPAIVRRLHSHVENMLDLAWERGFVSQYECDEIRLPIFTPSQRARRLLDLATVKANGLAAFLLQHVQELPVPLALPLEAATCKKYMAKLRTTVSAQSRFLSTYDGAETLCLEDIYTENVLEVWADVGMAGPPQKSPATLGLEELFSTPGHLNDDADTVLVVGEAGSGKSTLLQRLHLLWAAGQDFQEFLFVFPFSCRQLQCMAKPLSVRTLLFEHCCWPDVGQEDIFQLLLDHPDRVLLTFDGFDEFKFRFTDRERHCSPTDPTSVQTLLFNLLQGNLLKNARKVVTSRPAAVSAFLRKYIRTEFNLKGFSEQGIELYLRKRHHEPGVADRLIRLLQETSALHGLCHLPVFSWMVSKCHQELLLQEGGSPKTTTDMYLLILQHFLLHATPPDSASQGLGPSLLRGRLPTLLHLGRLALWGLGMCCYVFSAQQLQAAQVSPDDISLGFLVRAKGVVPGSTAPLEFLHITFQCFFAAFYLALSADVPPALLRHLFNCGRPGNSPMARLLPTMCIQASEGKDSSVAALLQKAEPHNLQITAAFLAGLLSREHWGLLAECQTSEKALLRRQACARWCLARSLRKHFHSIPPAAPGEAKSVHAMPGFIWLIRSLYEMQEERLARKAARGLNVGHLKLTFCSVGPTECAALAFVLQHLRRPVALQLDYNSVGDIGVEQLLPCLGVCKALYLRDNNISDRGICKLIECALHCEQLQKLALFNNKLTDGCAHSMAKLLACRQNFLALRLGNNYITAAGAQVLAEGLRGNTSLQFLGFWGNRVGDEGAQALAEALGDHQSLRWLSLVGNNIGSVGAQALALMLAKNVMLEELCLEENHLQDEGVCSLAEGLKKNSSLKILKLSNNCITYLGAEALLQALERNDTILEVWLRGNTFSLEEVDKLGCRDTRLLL

[2] = PBS, Average solubility, Tables S1–S3, average of two samples
[3] = PBS, Solubility sample 1, Tables S1–S3, replicate 1
[4] = PBS, Solubility sample 2, Tables S1–S3, replicate 2
[5] = PBS, solubility in PBS, kinetic solubility, HPLC solubility assay
[6] = Average solubility, Tables S1–S3, average of two samples
[7] = Solubility sample 1, Tables S1–S3, replicate 1
[8] = Solubility sample 2, Tables S1–S3, replicate 2
[9] = solubility in PBS, kinetic solubility, HPLC solubility assay

SMILES	solubility [1, 2]	solubility [1, 3]	solubility [1, 4]	solubility [1, 5]	TLR4 activation at 10 μM, fold increase (TLR4; 10 μM)	TLR4 activation at 100 μM, fold increase (TLR4)	maximum TLR4 activation (TLR4)	NOD2 activation at 10 μM, fold increase (NOD2)	NOD2 agonist activity (NOD2)	concentration at which compound activated TLR4 (TLR4)	solubility [1, 6]	solubility [1, 7]	solubility [1, 8]	solubility [1, 9]	TLR4 agonism (TLR4; 10 μM)
O=C(O)CSc1nc2c([nH]c3ccccc32)c(=O)n1-c1ccccc1 [Compound 6, reference compound]	254 µM (≈ 89.3 µg/mL)	270 µM (≈ 94.8 µg/mL)	238 µM (≈ 83.7 µg/mL)	254 µM (≈ 89.3 µg/mL)	1.22 fold increase	3.10 fold increase	3.10 fold	–	–	–	–	–	–	–	–
CCOC(=O)[C@@H](CCC(=O)NCCCOCCOCCOCCCNC(=O)Cc1ccc(C(C(=O)NC2CCCC2)N(C(=O)c2cc(-c3ccccc3)n(-c3ccccc3)n2)c2ccc3c(c2)CCC3)cc1)NC(=O)[C@@H](NC(=O)CNC(=O)/C=C/c1ccc(O)c(OC)c1)C(C)C (stereo partly drawn) [Compound 20, Ethyl (21R)-1-(4-(2-(Cyclopentylamino)-1-(N-(2,3-dihydro-1H-inden-5-yl)-1,5-diphenyl-1H-pyrazole-3-carboxamido)-2-oxoethyl)phenyl)-21-((S)-2-(2-((E)-3-(4-hydroxy-3-methoxyphenyl)acrylamido)acetamido)-3-methylbutanamido)-2,18-dioxo-7,10,13-trioxa-3,17-diazadocosan-22-oate]	–	1.61 µM (≈ 2.14 µg/mL)	1.38 µM (≈ 1.84 µg/mL)	1.5 µM (≈ 2 µg/mL)	2.68 fold increase	–	–	3.53 fold increase	comparable efficiency to MDP	5 µM	–	–	–	–	–
CCOC(=O)[C@@H](CCC(=O)NCCCOCCOCCOCCCNC(=O)CSc1nc2c([nH]c3ccccc32)c(=O)n1-c1ccccc1)NC(=O)[C@@H](NC(=O)CNC(=O)/C=C/c1ccc(O)c(OC)c1)C(C)C [Compound 30, Ethyl (R)-21-((S)-2-(2-((E)-3-(4-Hydroxy-3-methoxyphenyl)acrylamido)acetamido)-3-methylbutanamido)-2,18-dioxo-1-((4-oxo-3-phenyl-4,5-dihydro-3H-pyrimido[5,4-b]indol-2-yl)thio)-7,10,13-trioxa-3,17-diazadocosan-22-oate]	–	–	–	–	1.05 fold increase	1.36 fold increase	–	1.55 fold increase	–	–	122 µM (≈ 128 µg/mL)	124 µM (≈ 129 µg/mL)	121 µM (≈ 126 µg/mL)	122 µM (≈ 128 µg/mL)	–
CCOC(=O)[C@H](CCC(=O)N1CCC(CN2CCN(C(=O)CSc3nc4c([nH]c5ccccc54)c(=O)n3-c3ccccc3)CC2)CC1)NC(=O)[C@H](NC(=O)CNC(=O)/C=C/c1ccc(O)c(OC)c1)C(C)C [Compound 31, Ethyl (S)-2-((R)-2-(2-((E)-3-(4-Hydroxy-3-methoxyphenyl)acrylamido)acetamido)-3-methylbutanamido)-5-oxo-5-(4-((4-(2-((4-oxo-3-phenyl-4,5-dihydro-3H-pyrimido[5,4-b]indol-2-yl)thio)acetyl)piperazin-1-yl)methyl)piperidin-1-yl)pentanoate]	–	–	–	–	1.05 fold increase	2.26 fold increase	–	3.33 fold increase	–	–	–	7.22 µM (≈ 7.26 µg/mL)	6.15 µM (≈ 6.19 µg/mL)	6.68 µM (≈ 6.72 µg/mL)	–
CCOC(=O)[C@H](CCC(=O)NCCCCCCNC(=O)CSc1nc2c([nH]c3ccccc32)c(=O)n1-c1ccccc1)NC(=O)[C@H](NC(=O)CNC(=O)/C=C/c1ccc(O)c(OC)c1)C(C)C [Compound 28, Ethyl N ^2-((E)-3-(4-Hydroxy-3-methoxyphenyl)acryloyl)glycyl-D-valyl-N ^5-(6-(2-((4-oxo-3-phenyl-4,5-dihydro-3H-pyrimido[5,4-b]indol-2-yl)thio)acetamido)hexyl)-L-glutaminate]	–	–	–	–	1.06 fold increase	1.72 fold increase	–	1.65 fold increase	–	–	80 µM (≈ 75.1 µg/mL)	115 µM (≈ 108 µg/mL)	80.7 µM (≈ 75.8 µg/mL)	80 µM (≈ 75.1 µg/mL)	–
CCOC(=O)[C@H](CCC(=O)NCCCCCCNC(=O)Cc1ccc(C(C(=O)NC2CCCC2)N(C(=O)c2cc(-c3ccccc3)n(-c3ccccc3)n2)c2ccc3c(c2)CCC3)cc1)NC(=O)[C@@H](NC(=O)CNC(=O)/C=C/c1ccc(O)c(OC)c1)C(C)C (stereo partly drawn) [Compound 18, Ethyl N ^5-(6-(2-(4-(2-(Cyclopentylamino)-1-(N-(2,3-dihydro-1H-inden-5-yl)-1,5-diphenyl-1H-pyrazole-3-carboxamido)-2-oxoethyl)phenyl)acetamido)hexyl)-N ^2-((E)-3-(4-hydroxy-3-methoxyphenyl)acryloyl)glycyl-L-valyl-D-glutaminate]	–	0.85 µM (≈ 1.04 µg/mL)	1.17 µM (≈ 1.43 µg/mL)	1.01 µM (≈ 1.24 µg/mL)	1.46 fold increase	–	–	2.43 fold increase	–	–	–	–	–	–	weak TLR4 agonism
CCOC(=O)[C@H](CCC(=O)NCCNC(=O)Cc1ccc(C(C(=O)NC2CCCC2)N(C(=O)c2cc(-c3ccccc3)n(-c3ccccc3)n2)c2ccc3c(c2)CCC3)cc1)NC(=O)[C@@H](NC(=O)CNC(=O)/C=C/c1ccc(O)c(OC)c1)C(C)C (stereo partly drawn) [Compound 17, Ethyl N ^5-(2-(2-(4-(2-(Cyclopentylamino)-1-(N-(2,3-dihydro-1H-inden-5-yl)-1,5-diphenyl-1H-pyrazole-3-carboxamido)-2-oxoethyl)phenyl)acetamido)ethyl)-N ^2-((E)-3-(4-hydroxy-3-methoxyphenyl)acryloyl)glycyl-L-valyl-D-glutaminate]	–	0.68 µM (≈ 0.796 µg/mL)	0.83 µM (≈ 0.971 µg/mL)	0.76 µM (≈ 0.889 µg/mL)	5.10 fold increase	–	–	3.66 fold increase	comparable efficiency to MDP	1.0 µM	–	–	–	–	–
O=C(O)Cc1ccc(C(C(=O)NC2CCCC2)N(C(=O)c2cc(-c3ccccc3)n(-c3ccccc3)n2)c2ccc3c(c2)CCC3)cc1 (stereo not shown) [Compound 4, reference compound]	238 µM (≈ 152 µg/mL)	249 µM (≈ 159 µg/mL)	226 µM (≈ 145 µg/mL)	238 µM (≈ 152 µg/mL)	7.23 fold increase	–	7.23 fold	–	–	–	–	–	–	–	–
CCOC(=O)[C@H](CCC(=O)NCCNC(=O)CSc1nc2c([nH]c3ccccc32)c(=O)n1-c1ccccc1)NC(=O)[C@H](NC(=O)CNC(=O)/C=C/c1ccc(O)c(OC)c1)C(C)C [Compound 27, Ethyl N ^2-((E)-3-(4-Hydroxy-3-methoxyphenyl)acryloyl)glycyl-D-valyl-N ^5-(2-(2-((4-oxo-3-phenyl-4,5-dihydro-3H-pyrimido[5,4-b]indol-2-yl)thio)acetamido)ethyl)-L-glutaminate]	–	–	–	–	1.06 fold increase	2.60 fold increase	–	2.17 fold increase	–	–	310 µM (≈ 274 µg/mL)	322 µM (≈ 284 µg/mL)	298 µM (≈ 264 µg/mL)	310 µM (≈ 274 µg/mL)	–
CCOC(=O)[C@H](CCC(=O)NCCOCCOCCNC(=O)Cc1ccc(C(C(=O)NC2CCCC2)N(C(=O)c2cc(-c3ccccc3)n(-c3ccccc3)n2)c2ccc3c(c2)CCC3)cc1)NC(=O)[C@H](NC(=O)CNC(=O)/C=C/c1ccc(O)c(OC)c1)C(C)C (stereo partly drawn) [Compound 19, Ethyl (16S)-1-(4-(2-(Cyclopentylamino)-1-(N-(2,3-dihydro-1H-inden-5-yl)-1,5-diphenyl-1H-pyrazole-3-carboxamido)-2-oxoethyl)phenyl)-16-((R)-2-(2-((E)-3-(4-hydroxy-3-methoxyphenyl)acrylamido)acetamido)-3-methylbutanamido)-2,13-dioxo-6,9-dioxa-3,12-diazaheptadecan-17-oate]	–	2.59 µM (≈ 3.26 µg/mL)	1.68 µM (≈ 2.11 µg/mL)	2.14 µM (≈ 2.69 µg/mL)	2.78 fold increase	–	–	3.06 fold increase	–	5 µM	–	–	–	–	–
CCOC(=O)[C@H](CCC(=O)NCCOCCOCCNC(=O)CSc1nc2c([nH]c3ccccc32)c(=O)n1-c1ccccc1)NC(=O)[C@H](NC(=O)CNC(=O)/C=C/c1ccc(O)c(OC)c1)C(C)C [Compound 29, Ethyl (S)-16-((R)-2-(2-((E)-3-(4-Hydroxy-3-methoxyphenyl)acrylamido)acetamido)-3-methylbutanamido)-2,13-dioxo-1-((4-oxo-3-phenyl-4,5-dihydro-3H-pyrimido[5,4-b]indol-2-yl)thio)-6,9-dioxa-3,12-diazaheptadecan-17-oate]	–	–	–	–	1.00 fold increase	1.43 fold increase	–	1.60 fold increase	–	–	238 µM (≈ 231 µg/mL)	232 µM (≈ 225 µg/mL)	244 µM (≈ 237 µg/mL)	238 µM (≈ 231 µg/mL)	–
